Where two headings read alike, the source gives them in different places. Values belong to the molecule of their own block, whether it stands above or below them.
Columns and labels:
[1] = Enterohepatic circulation of mycophenolic acid; format: in vivo, human (stable renal transplant recipients); details: all patients
[2] = Gastrointestinal adverse effect evaluation; format: in vivo, human (stable renal transplant recipients); details: patients with score > 0
[3] = for Patients within or below the mycophenolic acid AUC0–12h target range: patients with mild gastrointestinal adverse effects (score 1–2); for Cmax / Tmax / AUC(0-t) / AUC / concentration at 12 h / clearance: human, plasma, oral; for AUC: Mycophenolic acid AUC6–12h, estimate of enterohepatic recirculation; for concentration at 12 h: Mycophenolic acid CP(12h); for clearance: Mycophenolic acid clearance; for Mycophenolic acid dose-normalized AUC0–12h: normalized to 1-mg mycophenolic acid dose equivalent
[4] = Tacrolimus whole-blood trough concentration; format: in vivo, human (stable renal transplant recipients); details: human, oral
[5] = tacrolimus- and mycophenolic acid-treated patients; ELITE-SYMPHONY study; cited from earlier work
[6] = on tacrolimus and enteric-coated mycophenolate sodium
[7] = with tacrolimus and enteric-coated mycophenolate sodium, female (n = 29), steady state
[8] = with tacrolimus and enteric-coated mycophenolate sodium, male (n = 38), steady state

SMILES: COc1c(C)c2c(c(O)c1C/C=C(\C)CCC(=O)O)C(=O)OC2 [Mycophenolic acid]
- Enterohepatic circulation, frequency ([1]; with cyclosporine): 45%
- Enterohepatic circulation, frequency ([1]; with tacrolimus): 78%
- Enterohepatic circulation, frequency ([1]; with tacrolimus, listed as mycophenolic acid): More than 75%
- Gastrointestinal adverse effect score ([2]; mycophenolic acid AUC0–12h < 30 mg·h/L (n = 22)): 1.7 ± 0.8
- Gastrointestinal adverse effect score ([2]; mycophenolic acid AUC0–12h > 60 mg h/L (n = 34)): 3.0 ± 1.7
- Gastrointestinal adverse effect score ([2]; mycophenolic acid AUC0–12h within 30–60 mg·h/L (n = 54)): 2.2 ± 1.1
- Patients within or below the mycophenolic acid AUC0–12h target range of 30–60 mg·h/L ([3]; cyclosporine and mycophenolate mofetil, patients with no gastrointestinal adverse effects): 87%
- Patients within or below the mycophenolic acid AUC0–12h target range ([3]; cyclosporine): 88.5%
- Cmax ([3]; female, 546 mg): 21700 ± 10600 ng/mL
- Tmax ([3]; female, 546 mg): 3.16 ± 2.57 h
- Cmax ([3]; female, 591 mg): 6490 ± 2300 ng/mL
- Tmax ([3]; female, 591 mg): 2.07 ± 0.11 h
- AUC(0-t) ([3]; female, Mycophenolic acid AUC0–12h, with cyclosporine and mycophenolate mofetil, female (n = 14), steady state): 40100 ± 13800 ng·h/mL
- AUC(0-t) ([3]; female, Mycophenolic acid AUC0–12h, with tacrolimus and enteric-coated mycophenolate sodium, female (n = 29), steady state): 73400 ± 31200 ng·h/mL
- AUC ([3]; female, with cyclosporine and mycophenolate mofetil, female (n = 14)): 15400 ± 5510 ng·h/mL
- AUC ([3]; female, with tacrolimus and enteric-coated mycophenolate sodium, female (n = 29)): 29300 ± 24000 ng·h/mL
- concentration at 12 h ([3]; female, with cyclosporine and mycophenolate mofetil, female (n = 14), steady state): 2200 ± 1000 ng/mL
- concentration at 12 h ([3]; female, with tacrolimus and enteric-coated mycophenolate sodium, female (n = 29), steady state): 4300 ± 2300 ng/mL
- clearance ([3]; female, African American women receiving tacrolimus): 162 mL/min
- clearance ([3]; with cyclosporine, all patients): 342 mL/min
- clearance ([3]; with tacrolimus, all patients): 177 mL/min
- AUC(0-t) ([3]; male): 65500 ± 30600 ng·h/mL
- Cmax ([3]; male, 587 mg): 19600 ± 11200 ng/mL
- Tmax ([3]; male, 587 mg): 2.88 ± 2.06 h
- Cmax ([3]; male, 715 mg): 10300 ± 6500 ng/mL
- Tmax ([3]; male, 715 mg): 1.92 ± 1.2 h
- AUC(0-t) ([3]; male, Mycophenolic acid AUC0–12h, with cyclosporine and mycophenolate mofetil, male (n = 66), steady state): 41000 ± 18400 ng·h/mL
- AUC ([3]; male, with cyclosporine and mycophenolate mofetil, male (n = 66)): 12600 ± 7400 ng·h/mL
- AUC ([3]; male, with tacrolimus and enteric-coated mycophenolate sodium, male (n = 38)): 23800 ± 13400 ng·h/mL
- concentration at 12 h ([3]; male, with cyclosporine and mycophenolate mofetil, male (n = 66), steady state): 2100 ± 1500 ng/mL
- concentration at 12 h ([3]; male, with tacrolimus and enteric-coated mycophenolate sodium, male (n = 38), steady state): 3900 ± 2200 ng/mL
- Patients within the target mycophenolic acid AUC0–12h range of 30–60 mg h/L ([3]; men receiving cyclosporine and mycophenolate mofetil): 54.5%
- Patients exceeding the target mycophenolic acid AUC0–12h range of 30–60 mg h/L ([3]; men receiving tacrolimus and enteric-coated mycophenolate sodium): 50%
- Patients achieving target mycophenolic acid AUC0–12h of 30–60 mg·h/L ([3]; on cyclosporine and mycophenolate mofetil): 56.3%
- Patients above the mycophenolic acid AUC0–12h target of 60 mg·h/L [3, 6]: 56.7%
- Patients achieving target mycophenolic acid AUC0–12h of 30–60 mg·h/L [3, 6]: 34.3%
- Patients exceeding the mycophenolic acid AUC0–12h target range ([3]; tacrolimus and enteric-coated mycophenolate sodium, moderate to severe gastrointestinal adverse effects (score ≥ 3)): 50%
- Patients above the mycophenolic acid AUC0–12h target range ([3]; tacrolimus and enteric-coated mycophenolate sodium, patients with no gastrointestinal adverse effects): 78.6%
- Lymphopenic patients with mycophenolic acid AUC0–12h > 60 mg·h/L ([3]; tacrolimus-based regimen (22 of 35)): 62.9%
- Patients within or below the mycophenolic acid AUC0–12h target range ([3]; tacrolimus): 53.8%
- Mycophenolic acid dose-normalized AUC0–12h ([3]; with cyclosporine and mycophenolate mofetil, female (n = 14)): 0.066 ± 0.015 mg·h/L/mg
- Mycophenolic acid dose-normalized AUC0–12h ([3]; with cyclosporine and mycophenolate mofetil, male (n = 66)): 0.058 ± 0.032 mg·h/L/mg
- Mycophenolic acid dose-normalized AUC0–12h ([3]; with tacrolimus and enteric-coated mycophenolate sodium, female (n = 29)): 0.127 ± 0.053 mg·h/L/mg
- Mycophenolic acid dose-normalized AUC0–12h ([3]; with tacrolimus and enteric-coated mycophenolate sodium, male (n = 38)): 0.103 ± 0.045 mg·h/L/mg
- Patients within the target mycophenolic acid AUC0–12h range of 30–60 mg h/L ([3]; women receiving cyclosporine and mycophenolate mofetil): 64.3%
- Patients exceeding the target mycophenolic acid AUC0–12h range of 30–60 mg h/L ([3]; women receiving tacrolimus and enteric-coated mycophenolate sodium): 65.5%

- concentration at 0 h ([4]; female): 7.1 ± 1.9 ng/mL
- concentration at 0 h ([4]; male): 7.3 ± 2 ng/mL
SMILES: C=CC[C@@H]1/C=C(\C)C[C@H](C)C[C@H](OC)[C@H]2O[C@@](O)(C(=O)C(=O)N3CCCC[C@H]3C(=O)O[C@H](/C(C)=C/[C@@H]3CC[C@@H](O)[C@H](OC)C3)[C@H](C)[C@@H](O)CC1=O)[C@H](C)C[C@@H]2OC [Tacrolimus]
- Diarrhea [5]: 25.3%

- Mycophenolic acid glucuronide AUC0–12h, fold higher in women than men ([3]; tacrolimus group): 1.37 fold
- Mycophenolic acid glucuronide AUC0–12h [3, 7]: 1068 ± 557 mg·h/L
- Mycophenolic acid glucuronide CP(12h) [3, 7]: 75.1 ± 45.2 mg/L
- Mycophenolic acid glucuronide Cmax [3, 7]: 126000 ± 60000 ng/mL
- Mycophenolic acid glucuronide tmax [3, 7]: 3.68 ± 2.45 h
- Mycophenolic acid glucuronide AUC0–12h [3, 8]: 780 ± 336 mg·h/L
- Mycophenolic acid glucuronide CP(12h) [3, 8]: 54.5 ± 28.0 mg/L
- Mycophenolic acid glucuronide Cmax [3, 8]: 96700 ± 47700 ng/mL
- Mycophenolic acid glucuronide tmax [3, 8]: 3.89 ± 1.76 h
SMILES: COc1c(C)c2c(c(O[C@@H]3O[C@H](C(=O)O)[C@@H](O)[C@H](O)[C@H]3O)c1C/C=C(\C)CCC(=O)O)C(=O)OC2 [Mycophenolic acid glucuronide]

Source: article PMC7375007 (Journal of clinical pharmacology, 2019)
